Converted amounts (≈) assume the structure as drawn. The source made the active and inactive calls. No cut-off for these calls is given here.
What was measured:
[1] = Lipophilicity, log D of compound at pH 7.4; type: physicochemical; conditions: buffer
[2] = Solubility of the compound; type: physicochemical
[3] = biological target: T1, S-adenosylmethionine synthase isoform type-2 (Homo sapiens, UniProt P31153); assay: Inhibition of recombinant human MAT2A
[4] = system: HCT-116; assay: Antiproliferative activity against MTAP-/- isogenic variant of human HCT-116 cells assessed as inhibition of cell growth by proliferation assay; type: functional, cell-based
[5] = system: HCT-116; assay: Antiproliferative activity against human HCT-116 cells assessed as inhibition of cell growth by proliferation assay; type: functional, cell-based
[6] = biological target: T2, S-adenosylmethionine synthase isoform type-1 (Homo sapiens, UniProt Q00266); assay: Inhibition of human MAT1A
T2 sequence (Q00266 whole entry, canonical isoform): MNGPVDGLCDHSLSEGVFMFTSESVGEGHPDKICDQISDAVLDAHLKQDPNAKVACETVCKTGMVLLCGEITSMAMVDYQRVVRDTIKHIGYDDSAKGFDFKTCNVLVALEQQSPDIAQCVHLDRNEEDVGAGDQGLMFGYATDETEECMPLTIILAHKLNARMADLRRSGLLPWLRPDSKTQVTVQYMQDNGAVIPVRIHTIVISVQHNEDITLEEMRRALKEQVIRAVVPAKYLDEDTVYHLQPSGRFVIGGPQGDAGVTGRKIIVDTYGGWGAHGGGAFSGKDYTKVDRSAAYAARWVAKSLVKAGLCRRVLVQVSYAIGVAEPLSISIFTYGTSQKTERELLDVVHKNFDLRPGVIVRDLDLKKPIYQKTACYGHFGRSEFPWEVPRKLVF

[7] = biological target: T2, S-adenosylmethionine synthase isoform type-1; assay: Inhibition of recombinant human MAT1A
[8] = biological target: T1, S-adenosylmethionine synthase isoform type-2; assay: Inhibition of human MAT2A
Target sequence in this assay (P31153 whole entry, canonical isoform): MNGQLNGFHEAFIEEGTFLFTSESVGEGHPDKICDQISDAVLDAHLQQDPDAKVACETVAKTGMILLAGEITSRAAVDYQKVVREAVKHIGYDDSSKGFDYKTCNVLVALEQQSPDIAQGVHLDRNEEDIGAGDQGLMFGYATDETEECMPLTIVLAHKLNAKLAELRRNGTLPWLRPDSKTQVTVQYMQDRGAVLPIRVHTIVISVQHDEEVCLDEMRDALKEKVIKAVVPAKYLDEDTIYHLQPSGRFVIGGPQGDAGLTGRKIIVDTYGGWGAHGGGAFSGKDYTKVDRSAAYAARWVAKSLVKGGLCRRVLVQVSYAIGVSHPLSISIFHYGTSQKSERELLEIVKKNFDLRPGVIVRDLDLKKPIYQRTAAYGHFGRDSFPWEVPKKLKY

[9] = biological target: T2, S-adenosylmethionine synthase isoform type-1; assay: Activation of human MAT1A; conditions: filed as activator

CCn1ncc2c(C(=O)N(C)c3ccc4nn(C)cc4c3)cc(C3CC3)nc21
logD [1]: 2.2
solubility [2]: 94 µM (≈ 35.2 µg/mL)
IC50 [3]: > 10 µM

CCn1ncc2c(C(=O)Nc3ccc4nn(C)cc4c3)cc(C3CC3)nc21
logD [1]: 2.8
solubility [2]: 2 µM (≈ 0.721 µg/mL)
IC50 [4]: 1.71 µM
IC50 [3]: 0.078 µM
IC50 [5]: > 10 µM

Cn1cc2cc(-n3cc4cnc(NCC(F)(F)F)nc4c(-c4ccc(OC(F)F)cc4)c3=O)ccc2n1
IC50 [6]: > 10 µM
inhibition [7]: Active
inhibition [3]: Active
IC50 [8]: 0.05 µM

CCn1cc2cc(NC(=O)c3cc(C4CC4)nc4c3cnn4CC)ccc2n1
logD [1]: 3.1
solubility [2]: 32 µM (≈ 12 µg/mL)
IC50 [4]: 2.42 µM
IC50 [3]: 0.068 µM
IC50 [5]: > 10 µM

CC(C)n1ncc2c(C(=O)Nc3ccc4ncccc4c3)cc(C3CC3)nc21
logD [1]: 3.7
solubility [2]: 4 µM (≈ 1.49 µg/mL)
IC50 [4]: > 10 µM
IC50 [3]: 3.71 µM
IC50 [5]: > 10 µM

CC(C)n1ncc2c(C(=O)Nc3ccc4nn(C)cc4c3)cc(C3CC3)nc21
logD [1]: 3.3
solubility [2]: 3 µM (≈ 1.12 µg/mL)
IC50 [4]: > 10 µM
IC50 [3]: 0.403 µM
IC50 [5]: > 10 µM

CCn1ncc2c(C(=O)Nc3ccc4ncn(C)c4c3)cc(C3CC3)nc21
logD [1]: 2.6
solubility [2]: 49 µM (≈ 17.7 µg/mL)
IC50 [4]: 7.17 µM
IC50 [3]: 0.205 µM
IC50 [5]: > 10 µM

CC(C)n1ncc2c(C(=O)Nc3ccc4nccnc4c3)cc(C3CC3)nc21
logD [1]: 3.5
solubility [2]: 2 µM (≈ 0.745 µg/mL)
IC50 [3]: > 10 µM

COc1ccc(-c2c(Nc3ccccn3)[nH]c3c(C4=CCCCC4)c(-c4ccccc4)nn3c2=O)cc1
inhibition [7]: Active
inhibition [3]: Active
Activity [9]: Active

O=c1nc(N2CC[C@@H](F)C2)c2ccc(Cl)cc2n1-c1ccccc1
IC50 [6]: 0.813 µM
inhibition [7]: Active
inhibition [3]: Active

CCn1ncc2c(C(=O)Nc3ccc4ncccc4c3)cc(C3CC3)nc21
logD [1]: 3.2
solubility [2]: 13 µM (≈ 4.65 µg/mL)
IC50 [4]: 6.41 µM
IC50 [3]: 0.277 µM
IC50 [5]: > 10 µM

CCn1ncc2c(C(=O)Nc3ccc(OC)cc3)cc(C3CC3)nc21
logD [1]: 3.6
solubility [2]: 3 µM (≈ 1.01 µg/mL)
IC50 [4]: 5.27 µM
IC50 [3]: 0.13 µM
IC50 [5]: > 10 µM

COc1ccc2oc3cc(C)[n+]([O-])c(-c4ccccc4)c3c2c1
logD [1]: 2.3
solubility [2]: 15 µM (≈ 4.58 µg/mL)
IC50 [3]: 1.31 µM

CCCCn1ncc2c(C(=O)Nc3ccc4nn(C)cc4c3)cc(C3CC3)nc21
logD [1]: 3.2
solubility [2]: 4 µM (≈ 1.55 µg/mL)
IC50 [3]: > 10 µM

CCn1ncc2c(C(=O)Nc3ccc4nn(C)c(C)c4c3)cc(C3CC3)nc21
logD [1]: 2.9
solubility [2]: 9 µM (≈ 3.37 µg/mL)
IC50 [4]: 3.19 µM
IC50 [3]: 0.09 µM
IC50 [5]: > 10 µM

CCn1ncc2c(C(=O)Nc3ccc4ncsc4c3)cc(C3CC3)nc21
logD [1]: 3.4
solubility [2]: 1 µM (≈ 0.363 µg/mL)
IC50 [4]: 3.86 µM
IC50 [3]: 0.172 µM
IC50 [5]: > 10 µM

CC(C)n1ncc2c(C(=O)Nc3ccc4n[nH]cc4c3)cc(C3CC3)nc21
logD [1]: 3.3
solubility [2]: 19 µM (≈ 6.85 µg/mL)
IC50 [4]: > 10 µM
IC50 [3]: 1.84 µM
IC50 [5]: > 10 µM

CCn1ncc2c(C(=O)Nc3ccc4c(c3)ncn4C)cc(C3CC3)nc21
logD [1]: 2.6
solubility [2]: 47 µM (≈ 16.9 µg/mL)
IC50 [4]: 9.96 µM
IC50 [3]: 0.303 µM
IC50 [5]: > 10 µM

COc1ccc(-c2c3c(cc(C)[n+]2[O-])oc2ccc(OC)cc23)cc1
logD [1]: 2.5
solubility [2]: 42 µM (≈ 14.1 µg/mL)
IC50 [4]: 7.55 µM
IC50 [3]: 0.145 µM
IC50 [5]: > 10 µM

CN(C)CCc1nnc2cc(-c3ccccc3)c3cc(Cl)ccc3n12
inhibition [7]: Active
inhibition [3]: Active
IC50 [8]: 0.412 µM
Activity [9]: Active

CCn1ncc2c(C(=O)Nc3ccc4[nH]ncc4c3)cc(C3CC3)nc21
logD [1]: 2.7
solubility [2]: 23 µM (≈ 7.97 µg/mL)
IC50 [4]: > 10 µM
IC50 [3]: 0.469 µM
IC50 [5]: > 10 µM

COc1ccc2oc3cc(C)[n+]([O-])c(-c4ccc(Cl)cc4)c3c2c1
logD [1]: 2.8
solubility [2]: 14 µM (≈ 4.76 µg/mL)
IC50 [4]: 3.12 µM
IC50 [3]: 0.122 µM
IC50 [5]: 7.93 µM

COc1ccc2oc3cc(C)[n+]([O-])c(-c4ccc(C)cc4)c3c2c1
logD [1]: 2.7
solubility [2]: 11 µM (≈ 3.51 µg/mL)
IC50 [4]: 4.96 µM
IC50 [3]: 0.051 µM
IC50 [5]: 9.23 µM

Reference: ChEMBL document CHEMBL5365425, “Discovery of novel methionine adenosyltransferase 2A (MAT2A) allosteric inhibitors by structure-based virtual screening” (Bioorg Med Chem Lett, 2023)
